Assay results from paper PMC4205289, “Triptolide inhibits human immunodeficiency virus type 1 replication by promoting proteasomal degradation of Tat protein” (Retrovirology, 2014).
Like-named read-outs stand apart in the source and are kept apart here.

How the values were obtained:
Type in all cases: cell-based
[1] = tested on: HIV-1-Luc; assay: microbe, parasite or virus in culture
Description: In the antiviral assay with the HIV-1 reporter virus, Jurkat cells were seeded at a density of 2 × 10^4 cells per well in 96-well tissue culture plates and infected with HIV-1-Luc at an MOI of 0.5 in the presence or absence of the test compounds. At 48 h post-infection, luciferase activity in the cells was determined and EC50 values were calculated as described above.

[2] = tested on: HIV-1 NL4-3; assay: PBMC antiviral assay, p24 ELISA; details: for EC50: Human immunodeficiency virus 1, NL43, PBMC, 144 h, p24, day 6 post-infection; for selectivity ratio at 6 days: human, read-out: SI (selective index, CC50/EC50)
Description: In the antiviral assay using PBMCs, determination of the anti-HIV-1 activity of a particular compound was based on the inhibition of HIV-1 capsid protein (p24) production. After isolation, PBMCs were stimulated with phytohemagglutinin (2 μg/ml, Sigma-Aldrich) and interleukin-2 (20 U/mL, Sigma-Aldrich) in RPMI 1640 complete medium for three days and were then maintained with interleukin-2 during viral infection. PBMCs were infected with HIV-1 NL4-3 (MOI = 0.01). After viral adsorption for 2 h, the cells were washed thoroughly with culture medium to remove unabsorbed viral particles. The infected cells (2 × 10^5 cells/well) were cultured in 96-well plates in the presence of or absence of the test compound. At two, four, six, and eight days post-infection, half of the culture supernatant was collected and replaced with fresh medium containing the test compounds. The level of viral replication was determined with an HIV-1 p24 antigen capture enzyme-linked immunosorbent assay (ELISA).

[3] = Cytotoxicity, CellTiter-Glo; details: human; for CC50 at 6 days: PBMCs, mock-infected cell viability
Description: (§1) The cytotoxicity of the tested compounds was evaluated in parallel with their antiviral assays using the CellTiter-Glo reagent (Promega) according to the manufacturer’s protocol. The 50% cytotoxic concentrations (CC50s) is the compound concentration that reduced cell viability by 50%.

[4] = tested on: PBMCs; assay: Cytotoxicity, CellTiter-Glo
Description: as §1

[5] = tested on: TZM-bl cells; assay: Cytotoxicity, CellTiter-Glo; details: TZM-bl, all tested concentrations, in parallel with antiviral assay
Description: as §1

[6] = tested on: HIV-1 mRNA; assay: Reverse-transcription PCR of viral mRNA (Gag region) in infected Jurkat cells; details: HIV-1 NL4-3 MOI 0.5, 12 h post-infection, 118-D-24 50 μM, flavopiridol 20 nM, triptolide 5 nM
Description: The effects of the test compounds on HIV-1 proviral DNA and mRNA synthesis were analyzed by PCR. Jurkat cells were grown in 24-well plates and infected with the HIV-1 NL4-3 strain at an MOI of 0.5, and then test compounds were added at the desired concentrations. After incubation for 12 h, genomic DNA and mRNA from the infected cells were isolated using a Genomic DNA Mini Preparation Kit (Beyotime, China) and TRIzol reagent (Invitrogen Life Technologies), respectively. Nested PCR was used for the amplification of integrated proviral DNA, as previously described. To determine viral mRNA expression levels, 1 μg of RNA was treated with RQ1 RNase-Free DNase (Promega) and reverse transcribed using M-MLV Reverse Transcriptase (Promega) and random primers (Promega). An aliquot of cDNA was used as template for amplification of the HIV-1 Gag region as described elsewhere. […]
All of the PCR products were visualized on a UV transilluminator in 2% agarose gels stained with ethidium bromide. In preliminary experiments, the exponential range of the PCR amplification curve was determined for all of the PCR products by varying the amount of input DNA and the number of PCR cycles. Based on these experiments, appropriate conditions were chosen to perform semi-quantitative PCRs.

[7] = tested on: Tat-GFP fusion protein; assay: Western blot of Tat-GFP fusion proteins in HeLa cells; details: 48 h
Description: Figure 5 Triptolide specifically reduces steady-state level of Tat protein. (A) HeLa cells were transfected with pEF1-FLAG-Tat in the presence of increasing concentrations of triptolide. Cells were harvested 48 h post-transfection, and protein expression levels were determined by Western blotting. (B) HeLa cells were transfected either with pEF1-GFP (left) or pEF1-Tat-GFP (right) in the presence of increasing concentrations of triptolide. Cells were harvested 48 h post-transfection, and protein expression levels were determined by Western blotting.
Figure 7 N-terminal domains are required for triptolide to reduce Tat steady-state levels. (A) Schematic diagram of domains of HIV-1 Tat. (B) The effects of triptolide on steady-state levels of Tat mutants. […] Cells were harvested 48 h post-transfection, and protein expression levels were determined by Western blotting. […] Cells were harvested 48 h post-transfection, and protein expression levels were determined by Western blotting. […] At 48 h post transfection, the nucleus and cytoplasm were fractionated using NE-PER nuclear and cytoplasmic extraction reagent, and protein expression levels were determined by Western blotting. […] Cells were harvested 48 h post-transfection, and protein expression levels were determined by Western blotting. […]

CC(C)[C@]12O[C@H]1[C@@H]1O[C@]13[C@]1(O[C@H]1C[C@H]1C4=C(CC[C@@]13C)C(=O)OC4)[C@@H]2O [triptolide]
EC50 ([1]; Human immunodeficiency virus 1, Jurkat, 48 h): 0.45 nM | selectivity ratio at 48 h ([1]; human, HIV-1-Luc, Jurkat, read-out: SI (selective index, CC50/EC50)): 30.9 | EC50 ([2]; HIV-1 NL4-3, PBMC donor A): 1.1 nM | EC50 ([2]; HIV-1 NL4-3, PBMC donor B): 0.9 nM | EC50 ([2]; HIV-1 NL4-3, PBMC donor C): 1.3 nM | selectivity ratio at 6 days ([2]; HIV-1 NL4-3, PBMC donor A): 11.5 | selectivity ratio at 6 days ([2]; HIV-1 NL4-3, PBMC donor B): 17 | selectivity ratio at 6 days ([2]; HIV-1 NL4-3, PBMC donor C): 8.6 | CC50 ([3]; Jurkat cells, mock-infected Jurkat cell viability): 13.9 nM | CC50 at 6 days ([3]; PBMC donor A): 12.6 nM | CC50 at 6 days ([3]; PBMC donor B): 15.3 nM | CC50 at 6 days ([3]; PBMC donor C): 11.2 nM | CC50 ([3]; TZM-bl cells, mock-infected TZM-bl cell viability): 25.4 nM | maximum non-toxic concentration [4]: 4 nM | toxicity in cell viability assay [5]: no obvious toxicity | effect on viral mRNA synthesis [6]: repress viral mRNA synthesis | activity on fusion protein of Tat basic domain with GFP (Tat49–57-GFP) ([7]; pEF1-Tat49–57-GFP): not sufficient to mediate the susceptibility to triptolide | steady-state level of Tat-GFP ([7]; pEF1-Tat-GFP): reduced the steady-state levels of Tat-GFP dose-dependently
